In ChEMBL document CHEMBL1150372, “Synthesis, fluorine-18 radiolabeling, and in vitro characterization of 1-iodophenyl-N-methyl-N-fluoroalkyl-3-isoquinoline carboxamide derivatives as potential PET radioligands for imaging peripheral benzodiazepine receptor” (Bioorg Med Chem, 2008) one finds IC50, logD and Kd data, which are given here for seven compounds.

In series [1] the target is Translocator protein (Rattus norvegicus, UniProt P16257). Put plainly: Displacement of [3H]PK11195 from PBR in rat kidney mitochondrial membrane. Format: cell membranes. For orientation: Loss of bound radioactivity is the signal in a displacement assay; it reports binding, not function.
Translocator protein (Rattus norvegicus, UniProt P16257), sequence (P16257 whole entry, looked up): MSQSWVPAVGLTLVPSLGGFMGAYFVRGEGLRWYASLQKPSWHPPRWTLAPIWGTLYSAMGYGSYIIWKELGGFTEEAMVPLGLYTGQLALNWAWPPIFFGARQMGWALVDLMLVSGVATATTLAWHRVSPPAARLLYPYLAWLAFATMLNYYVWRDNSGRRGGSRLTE
A short description of series [2]: Lipophilicity, log P at pH 7.4. Format: physicochemical. The following applies: buffer.
Series [3] has as its target Translocator protein (Homo sapiens, UniProt P30536). Put plainly: Binding affinity to human PBR.

Translocator protein (Homo sapiens, UniProt P30536), sequence (P30536 whole entry): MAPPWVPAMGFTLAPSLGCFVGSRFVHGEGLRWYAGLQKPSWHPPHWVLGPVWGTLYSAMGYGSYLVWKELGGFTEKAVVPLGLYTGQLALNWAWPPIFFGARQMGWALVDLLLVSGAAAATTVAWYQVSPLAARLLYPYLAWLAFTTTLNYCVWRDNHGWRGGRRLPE

`CN(CCCF)C(=O)c1cc2ccccc2c(-c2ccccc2I)n1`: on Translocator protein [1], the 50% inhibitory concentration (IC50) (usually the concentration that inhibits the measured activity by half) was found to be 0.28 nM. This lies in the sub-nanomolar range. `CN(CCCF)C(=O)c1cc2ccccc2c(-c2cccc(I)c2)n1` yielded a half-maximal inhibitory concentration (IC50) on Translocator protein [1] of 1.4 nM. In turn, `CN(CCCF)C(=O)c1cc2ccccc2c(-c2ccc(I)cc2)n1` registered an IC50 at Translocator protein [1] of 66.5 nM.

Consider `CN(CCF)C(=O)c1cc2ccccc2c(-c2ccccc2I)n1`, for which the IC50 at Translocator protein [1] was found to be 445 nM. Against the preceding compound, the IC50 is about 6.7-fold higher. Turning to `CN(CCC[18F])C(=O)c1cc2ccccc2c(-c2ccccc2I)n1`, the logD (usually the decadic logarithm of the distribution of all forms, ionised or not, between an organic phase and buffer at a given pH) in series [2] came out at 3. For the compound `CCCCCCN(CCCCCC)C(=O)Cc1c(-c2ccc(F)cc2)[nH]c2ccccc12`, on Translocator protein [3], the dissociation constant Kd – broadly, the concentration at which binding is half-saturated – was determined as 4 nM. That is a single-digit nanomolar value. Same read-out and setting: as for `CN1C(=O)CN=C(c2ccc(Cl)cc2)c2cc(Cl)ccc21` [RO-54864], the figure is 6 nM.
